How the values were obtained:
Assay in all cases: relative viability (nuclei count vs DMSO), 5 days (fraction); higher = more cells survive
Doramapimod + OSI-027 = compound: Cc1ccc(-n2nc(C(C)(C)C)cc2NC(=O)Nc2ccc(OCCN3CCOCC3)c3ccccc23)cc1 [Doramapimod] + COc1cccc2cc(-c3nc([C@H]4CC[C@H](C(=O)O)CC4)n4ncnc(N)c34)[nH]c12 [OSI-027] (partner 0.5 µM)
Procedure, shortened: (§1)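 Lung cancer cell lines were seeded in 1536-well plates and dosed by pin tool the next day, with either a single drug or a fixed anchor-drug dose combined with five library-drug doses (not always all listed) spaced in √10 steps. Five days later, one step fixed the cells and stained their nuclei (final 0.05% Triton X-100, 1% formaldehyde, 1 ug/ml Hoechst), and nuclei were counted on 4× images. Relative viability is the nuclei count in treated wells divided by the count in vehicle wells, and each value is the median of duplicate plates.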

Doramapimod + Olaparib = compound: Cc1ccc(-n2nc(C(C)(C)C)cc2NC(=O)Nc2ccc(OCCN3CCOCC3)c3ccccc23)cc1 [Doramapimod] + O=C(c1cc(Cc2n[nH]c(=O)c3ccccc23)ccc1F)N1CCN(C(=O)C2CC2)CC1 [Olaparib] (partner 8 µM)
Procedure, shortened: as §1

RAF265 + Olaparib = compound: Cn1c(Nc2ccc(C(F)(F)F)cc2)nc2cc(Oc3ccnc(-c4ncc(C(F)(F)F)[nH]4)c3)ccc21 [RAF265] + O=C(c1cc(Cc2n[nH]c(=O)c3ccccc23)ccc1F)N1CCN(C(=O)C2CC2)CC1 [Olaparib] (partner 8 µM)
Procedure, shortened: as §1

RAF265 + Pictilisib = compound: Cn1c(Nc2ccc(C(F)(F)F)cc2)nc2cc(Oc3ccnc(-c4ncc(C(F)(F)F)[nH]4)c3)ccc21 [RAF265] + CS(=O)(=O)N1CCN(Cc2cc3nc(-c4cccc5[nH]ncc45)nc(N4CCOCC4)c3s2)CC1 [Pictilisib] (partner 1 µM)
Procedure, shortened: as §1

Cell Line	relative viability (Doramapimod + OSI-027; first compound 0.02 µM)	relative viability (Doramapimod + OSI-027; first compound 0.06325 µM)	relative viability (Doramapimod + OSI-027; first compound 0.2 µM)	relative viability (Doramapimod + OSI-027; first compound 0.6325 µM)	relative viability (Doramapimod + OSI-027; first compound 2 µM)	relative viability (Doramapimod + Olaparib; first compound 0.02 µM)	relative viability (Doramapimod + Olaparib; first compound 0.06325 µM)	relative viability (Doramapimod + Olaparib; first compound 0.2 µM)	relative viability (Doramapimod + Olaparib; first compound 0.6325 µM)	relative viability (Doramapimod + Olaparib; first compound 2 µM)	relative viability (RAF265 + Olaparib; first compound 0.01 µM)	relative viability (RAF265 + Olaparib; first compound 0.03162 µM)	relative viability (RAF265 + Olaparib; first compound 0.1 µM)	relative viability (RAF265 + Olaparib; first compound 0.3162 µM)	relative viability (RAF265 + Olaparib; first compound 1 µM)	relative viability (RAF265 + Pictilisib; first compound 0.01 µM)	relative viability (RAF265 + Pictilisib; first compound 0.03162 µM)	relative viability (RAF265 + Pictilisib; first compound 0.1 µM)	relative viability (RAF265 + Pictilisib; first compound 0.3162 µM)	relative viability (RAF265 + Pictilisib; first compound 1 µM)
NCI-H1355	0.412	0.409	0.381	0.361	0.341	0.76	0.732	0.708	0.721	0.7	0.814	0.732	0.694	0.608	0.31	0.498	0.409	0.322	0.214	0.204
EKVX	0.718	0.684	0.679	0.671	0.698	0.955	0.775	0.888	0.844	0.742	0.806	0.866	0.966	0.646	0.653	0.425	0.414	0.429	0.242	0.334
NCI-H441	0.709	0.512	0.591	–	0.475	0.45	0.501	0.45	0.609	0.356	0.555	0.512	0.539	0.445	0.394	0.572	0.466	0.304	0.261	0.206
NCI-H1975	0.703	0.741	0.802	0.792	0.663	0.717	0.85	0.864	0.768	0.82	0.707	0.552	0.522	0.308	0.305	0.287	0.213	0.162	0.155	0.103
HCC-78	0.372	0.362	0.365	0.358	0.299	0.779	0.715	0.796	0.856	0.729	1	0.876	1.06	0.864	0.724	0.224	0.216	0.291	0.171	0.145
NCI-H2085	0.645	0.706	0.688	0.698	0.544	0.886	0.844	0.756	0.871	0.823	0.954	0.723	0.841	0.854	0.76	0.407	0.478	0.502	0.437	0.368
H3255	0.684	0.618	0.526	0.679	0.518	0.591	0.567	0.573	0.567	0.539	0.589	0.568	0.538	–	0.454	0.494	0.512	0.522	0.132	0.336
NCI-H2087	0.567	0.449	0.51	0.655	0.506	0.562	0.577	0.525	0.675	0.481	0.757	0.496	0.64	0.334	0.373	0.96	0.907	0.884	0.46	0.372
LC-2-ad	0.897	0.811	0.891	0.827	0.671	0.692	0.801	0.759	0.732	0.766	0.696	0.769	0.921	0.904	0.636	0.441	0.361	0.223	0.171	0.0927
PC-3 [JPC-3]	0.845	0.735	0.742	0.779	0.749	1.3	1.16	1.22	1.33	1.14	1.14	1.06	1.09	0.537	0.704	0.686	0.676	0.727	0.333	0.417
EBC-1	–	–	–	–	–	0.664	0.69	0.689	0.675	0.558	0.721	0.64	0.639	0.586	0.432	0.375	0.386	0.233	0.317	0.221
HCC-15	0.688	0.645	0.68	–	0.539	0.675	0.692	0.675	0.654	0.623	0.837	0.647	0.656	0.608	0.43	0.805	0.625	0.645	0.49	0.333
NCI-H1563	0.739	0.765	0.733	0.761	0.73	–	–	–	–	–	–	–	–	–	–	0.648	0.742	0.626	0.604	0.718
COR-L 105	0.799	0.745	0.703	0.771	0.612	0.59	0.727	0.707	0.824	0.602	0.727	0.618	0.703	0.772	0.485	0.487	0.316	0.383	0.292	0.307
NCI-H520	0.229	0.276	0.223	0.245	0.232	0.336	0.359	0.354	0.364	0.305	0.366	0.316	0.322	0.301	0.255	0.273	0.246	0.234	0.228	0.15
LU99A	0.299	0.341	0.261	0.344	0.272	0.273	0.304	0.27	0.259	0.256	0.268	0.283	0.226	0.185	0.152	0.324	0.269	0.233	0.21	0.187
NCI-H1666	0.974	0.852	0.846	0.787	0.772	0.844	0.743	0.751	0.775	0.748	0.806	0.746	0.707	0.786	0.703	0.583	0.453	0.329	0.426	0.249
NCI-H2170	0.724	0.784	0.716	0.712	0.677	0.596	0.643	0.57	0.588	0.605	0.58	0.485	0.596	0.438	0.405	0.34	0.283	0.287	0.214	0.239

Cell Line	relative viability (Doramapimod + OSI-027; first compound 0.02 µM)	relative viability (Doramapimod + OSI-027; first compound 0.06325 µM)	relative viability (Doramapimod + OSI-027; first compound 0.2 µM)	relative viability (Doramapimod + OSI-027; first compound 0.6325 µM)	relative viability (Doramapimod + OSI-027; first compound 2 µM)	relative viability (Doramapimod + Olaparib; first compound 0.02 µM)	relative viability (Doramapimod + Olaparib; first compound 0.06325 µM)	relative viability (Doramapimod + Olaparib; first compound 0.2 µM)	relative viability (Doramapimod + Olaparib; first compound 0.6325 µM)	relative viability (Doramapimod + Olaparib; first compound 2 µM)	relative viability (RAF265 + Olaparib; first compound 0.01 µM)	relative viability (RAF265 + Olaparib; first compound 0.03162 µM)	relative viability (RAF265 + Olaparib; first compound 0.1 µM)	relative viability (RAF265 + Olaparib; first compound 0.3162 µM)	relative viability (RAF265 + Olaparib; first compound 1 µM)	relative viability (RAF265 + Pictilisib; first compound 0.01 µM)	relative viability (RAF265 + Pictilisib; first compound 0.03162 µM)	relative viability (RAF265 + Pictilisib; first compound 0.1 µM)	relative viability (RAF265 + Pictilisib; first compound 0.3162 µM)	relative viability (RAF265 + Pictilisib; first compound 1 µM)
NCI-H2342	0.622	0.657	0.614	0.776	0.542	0.496	0.475	0.472	0.473	0.431	0.377	0.37	0.468	0.395	0.348	–	–	–	–	–
LCLC-97TM1	0.533	0.412	0.517	0.437	0.432	0.454	0.477	0.539	0.426	0.254	0.363	0.299	0.237	0.22	0.109	0.177	0.172	0.112	0.145	0.107
NCI-H1299	–	–	–	–	–	0.97	0.963	0.834	0.864	0.803	0.984	0.906	0.949	0.625	0.664	0.683	0.407	0.223	0.246	0.198
NCI-H3122	0.956	0.853	0.938	1.04	1.01	0.694	0.62	0.721	0.599	0.599	0.609	0.63	0.631	0.622	0.611	0.586	0.831	0.575	0.452	0.301
NCI-H1395	0.617	0.728	0.702	0.826	0.523	0.463	0.462	0.466	0.498	0.421	0.478	0.431	0.434	0.49	0.46	0.632	0.574	0.568	0.449	0.507
NCI-H2009	0.657	0.72	0.773	0.765	0.587	0.669	0.697	0.669	0.712	0.622	0.785	0.594	0.603	0.671	0.579	0.884	0.539	0.444	0.438	0.288
NCI-H1651	0.751	0.701	0.727	0.729	0.656	0.203	0.19	0.17	0.204	0.194	0.187	0.17	0.194	0.185	0.167	0.523	0.539	0.433	0.397	0.463
HARA	0.482	0.371	0.392	–	0.327	0.741	0.709	0.839	0.835	0.76	0.859	0.871	0.812	0.65	0.438	0.367	0.267	0.271	0.287	0.134
NCI-H1944	0.365	0.451	0.352	0.492	0.286	0.394	0.434	0.438	0.409	0.371	0.43	0.44	0.385	0.361	0.26	0.339	0.343	0.334	0.293	0.258
Calu-6	–	–	–	–	–	0.589	0.6	0.622	0.554	0.557	0.6	0.591	0.528	0.442	0.255	0.87	0.594	0.462	0.306	0.209
NCI-H1703	–	–	–	–	–	0.533	0.513	0.384	0.38	0.31	0.358	0.416	0.342	0.33	0.273	0.239	0.214	0.218	0.238	0.196
NCI-H1648	0.249	0.254	0.257	0.26	0.268	0.99	0.664	0.8	0.981	0.552	1.43	0.891	0.537	0.78	0.279	–	–	–	–	–
NCI-H1623	0.47	0.475	0.478	0.457	0.397	–	–	–	–	–	–	–	–	–	–	–	–	–	–	–
NCI-H522	0.667	0.705	0.767	0.68	0.656	0.582	0.669	0.696	0.604	0.608	0.791	0.695	0.737	0.728	0.57	–	–	–	–	–
SW 900	0.547	0.579	0.858	0.599	0.523	0.842	0.728	0.895	0.939	0.846	0.89	0.725	0.79	0.716	0.27	–	–	–	–	–
IA-LM	–	–	–	–	–	0.797	0.81	0.724	0.708	0.875	0.745	0.81	0.832	0.681	0.61	0.334	0.402	0.341	0.336	0.186
A549	–	–	–	–	–	0.376	0.3	0.299	0.3	0.269	0.41	0.367	0.404	0.0957	0.0721	0.476	0.498	0.391	0.235	0.0846
